PMC2746281 (PLoS ONE, 2009)

What was measured:
[1] = molecular target: T1, Insulin-like growth factor-I receptor (Homo sapiens, UniProt P08069); assay: Recombinant kinase screen (Proqinase), IGF-I receptor; format: biochemical; conditions: recombinant human enzyme; single experiment, kinase screen by Proqinase
Method: (§1) Full details for the generation of recombinant human KIT intracellular domain and other protein kinases (including Lyn, platelet derived growth factor receptor β, epidermal growth factor receptor, fibroblast growth factor receptor 1, Src, HCK, PYK, FES, Btk, Bmx, c-Ret, c-Fms, Syk, and c-Met) are provided in the Supplemental Methods (see Supporting Information; Methods S1). Experiments on ABL1, Akt1, protein kinase C-α, insulin-like growth factor receptor 1, and Pim1 were carried out by Proqinase (Germany). All other recombinant protein kinases were performed in-house using an enzyme-linked immunoassay; experimental details are provided in the Supplemental Methods (see Supporting Information; Methods S1).

[2] = molecular target: Focal adhesion kinase (Homo sapiens, UniProt Q05397); assay: Recombinant kinase ELISA assay, focal adhesion kinase; format: biochemical; conditions: recombinant human enzyme; ELISA-based assay, poly(Glu,Tyr 4:1) substrate
Method: as §1

[3] = molecular target: T2, Src (Homo sapiens, UniProt P12931); assay: Recombinant kinase ELISA assay, Src; format: biochemical; conditions: recombinant human enzyme; ELISA-based assay, poly(Glu,Tyr 4:1) substrate
T2 construct: Src (2–536; BC011566); 6xHN (N); made in house; host or cells: baculovirus, Sf9 insect cells
T2 sequence (P12931 2-536): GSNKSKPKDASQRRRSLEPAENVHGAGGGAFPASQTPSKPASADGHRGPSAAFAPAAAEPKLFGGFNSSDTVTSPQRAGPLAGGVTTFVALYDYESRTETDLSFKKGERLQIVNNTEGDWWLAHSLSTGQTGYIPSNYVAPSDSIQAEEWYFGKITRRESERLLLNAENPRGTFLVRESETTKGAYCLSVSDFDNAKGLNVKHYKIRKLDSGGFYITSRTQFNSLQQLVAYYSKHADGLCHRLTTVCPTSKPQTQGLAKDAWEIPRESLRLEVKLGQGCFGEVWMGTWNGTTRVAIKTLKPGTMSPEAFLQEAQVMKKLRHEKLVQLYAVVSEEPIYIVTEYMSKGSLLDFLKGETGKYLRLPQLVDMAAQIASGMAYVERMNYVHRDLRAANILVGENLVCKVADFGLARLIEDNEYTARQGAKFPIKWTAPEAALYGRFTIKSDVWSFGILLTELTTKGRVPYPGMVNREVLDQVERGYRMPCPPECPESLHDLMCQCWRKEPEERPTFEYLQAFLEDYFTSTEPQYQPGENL
Method: as §1
A 96-well microtitre plate (Immulon 2HB; ThermoLifeScience, Finland) was coated overnight with 0.25 mg/ml poly(Glu,Tyr 4:1), rinsed twice with 250 µl of washing buffer (10 mM phosphate-buffered saline [pH 7.4] and 0.05% Tween 20) and dried for 2 hours at room temperature. […] Reactions were initiated upon introduction of the enzyme and terminated with the addition of one reaction volume (50 μl) of 100 mM EDTA per 5 M urea mix. […] The final reaction product was quantified by spectrophotometry at 450 nm.

[4] = molecular target: T3, KIT D^814V (murine) (Mus musculus, UniProt P05532, D818V); assay: Ba/F3 cell proliferation (WST-1), KIT D814V; conditions: Ba/F3 cells expressing the enzyme, read-out: Cell-based assay IC50, KIT D^814V (murine)
T3 construct: expressed in transfected cells; host or cells: Ba/F3
T3 sequence (P05532 25-975 isoform P05532-2 D814V limits assumed): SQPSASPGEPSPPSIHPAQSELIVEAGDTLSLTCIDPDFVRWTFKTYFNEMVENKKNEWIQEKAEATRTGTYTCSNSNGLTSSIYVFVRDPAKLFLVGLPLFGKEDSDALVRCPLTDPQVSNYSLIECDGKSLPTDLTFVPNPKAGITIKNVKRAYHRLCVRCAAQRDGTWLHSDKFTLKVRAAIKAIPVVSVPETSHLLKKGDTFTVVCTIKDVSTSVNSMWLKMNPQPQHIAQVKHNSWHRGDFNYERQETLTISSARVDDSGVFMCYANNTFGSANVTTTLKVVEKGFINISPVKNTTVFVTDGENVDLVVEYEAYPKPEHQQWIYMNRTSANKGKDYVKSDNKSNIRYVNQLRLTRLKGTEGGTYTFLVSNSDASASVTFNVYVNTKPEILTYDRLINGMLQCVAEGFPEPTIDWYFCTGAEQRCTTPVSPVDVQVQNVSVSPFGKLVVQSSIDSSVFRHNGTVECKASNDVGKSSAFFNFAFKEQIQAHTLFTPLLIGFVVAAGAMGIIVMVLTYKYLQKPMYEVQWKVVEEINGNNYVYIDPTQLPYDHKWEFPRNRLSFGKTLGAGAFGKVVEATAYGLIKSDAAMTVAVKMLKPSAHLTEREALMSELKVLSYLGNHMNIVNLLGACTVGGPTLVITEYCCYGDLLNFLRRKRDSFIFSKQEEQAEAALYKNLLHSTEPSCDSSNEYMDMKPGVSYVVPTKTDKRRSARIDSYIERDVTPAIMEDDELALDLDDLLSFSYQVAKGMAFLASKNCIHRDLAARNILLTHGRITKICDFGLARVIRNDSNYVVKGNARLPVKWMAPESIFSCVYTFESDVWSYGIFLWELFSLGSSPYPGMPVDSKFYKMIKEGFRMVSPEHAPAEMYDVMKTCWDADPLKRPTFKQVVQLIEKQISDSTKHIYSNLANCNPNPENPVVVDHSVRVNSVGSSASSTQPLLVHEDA

[5] = molecular target: Flt3 (Homo sapiens, UniProt P36888); assay: Ba/F3 cell proliferation (WST-1), Flt3; conditions: Ba/F3 cells expressing the enzyme, read-out: Cell-based assay IC50, Flt3
Sequence of Flt3 (P36888 27-993): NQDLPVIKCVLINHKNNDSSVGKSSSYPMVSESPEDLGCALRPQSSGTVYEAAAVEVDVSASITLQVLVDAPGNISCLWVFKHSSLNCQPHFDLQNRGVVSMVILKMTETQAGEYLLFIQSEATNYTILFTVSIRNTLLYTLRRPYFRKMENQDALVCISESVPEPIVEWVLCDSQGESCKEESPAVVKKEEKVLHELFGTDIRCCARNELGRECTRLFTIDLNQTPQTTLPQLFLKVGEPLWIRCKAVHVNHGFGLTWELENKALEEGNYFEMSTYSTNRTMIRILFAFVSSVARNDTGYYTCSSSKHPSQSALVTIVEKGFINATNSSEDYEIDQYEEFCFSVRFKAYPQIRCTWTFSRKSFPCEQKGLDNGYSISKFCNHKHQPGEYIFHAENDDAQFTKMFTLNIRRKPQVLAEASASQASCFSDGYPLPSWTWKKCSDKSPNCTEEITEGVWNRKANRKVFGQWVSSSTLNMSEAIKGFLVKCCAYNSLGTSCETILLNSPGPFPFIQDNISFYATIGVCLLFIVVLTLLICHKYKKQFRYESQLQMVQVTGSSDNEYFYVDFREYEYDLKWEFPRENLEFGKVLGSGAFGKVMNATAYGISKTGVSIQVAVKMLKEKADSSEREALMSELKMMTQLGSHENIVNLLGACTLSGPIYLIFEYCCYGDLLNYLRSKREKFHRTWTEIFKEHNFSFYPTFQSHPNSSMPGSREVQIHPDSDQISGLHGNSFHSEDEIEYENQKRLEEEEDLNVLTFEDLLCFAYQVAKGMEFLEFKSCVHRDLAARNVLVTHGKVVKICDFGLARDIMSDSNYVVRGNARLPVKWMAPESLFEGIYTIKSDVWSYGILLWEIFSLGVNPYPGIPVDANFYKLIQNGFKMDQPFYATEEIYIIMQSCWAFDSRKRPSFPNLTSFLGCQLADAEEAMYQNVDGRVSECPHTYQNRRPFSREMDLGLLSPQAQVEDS

[6] = molecular target: Fibroblast growth factor receptor 3 (Homo sapiens, UniProt P22607); assay: Ba/F3 cell proliferation (WST-1), FGFR3; conditions: Ba/F3 cells expressing the enzyme, read-out: Cell-based assay IC50, Fibroblast growth factor receptor 3
[7] = molecular target: T4, Tyk2 (Homo sapiens, UniProt P29597); assay: Ba/F3 cell proliferation (WST-1), Tyk2; conditions: Ba/F3 cells expressing the enzyme, read-out: Cell-based assay IC50, Tyk2
T4 construct: expressed in transfected cells; host or cells: Ba/F3
T4 sequence (P29597 whole entry, species assumed): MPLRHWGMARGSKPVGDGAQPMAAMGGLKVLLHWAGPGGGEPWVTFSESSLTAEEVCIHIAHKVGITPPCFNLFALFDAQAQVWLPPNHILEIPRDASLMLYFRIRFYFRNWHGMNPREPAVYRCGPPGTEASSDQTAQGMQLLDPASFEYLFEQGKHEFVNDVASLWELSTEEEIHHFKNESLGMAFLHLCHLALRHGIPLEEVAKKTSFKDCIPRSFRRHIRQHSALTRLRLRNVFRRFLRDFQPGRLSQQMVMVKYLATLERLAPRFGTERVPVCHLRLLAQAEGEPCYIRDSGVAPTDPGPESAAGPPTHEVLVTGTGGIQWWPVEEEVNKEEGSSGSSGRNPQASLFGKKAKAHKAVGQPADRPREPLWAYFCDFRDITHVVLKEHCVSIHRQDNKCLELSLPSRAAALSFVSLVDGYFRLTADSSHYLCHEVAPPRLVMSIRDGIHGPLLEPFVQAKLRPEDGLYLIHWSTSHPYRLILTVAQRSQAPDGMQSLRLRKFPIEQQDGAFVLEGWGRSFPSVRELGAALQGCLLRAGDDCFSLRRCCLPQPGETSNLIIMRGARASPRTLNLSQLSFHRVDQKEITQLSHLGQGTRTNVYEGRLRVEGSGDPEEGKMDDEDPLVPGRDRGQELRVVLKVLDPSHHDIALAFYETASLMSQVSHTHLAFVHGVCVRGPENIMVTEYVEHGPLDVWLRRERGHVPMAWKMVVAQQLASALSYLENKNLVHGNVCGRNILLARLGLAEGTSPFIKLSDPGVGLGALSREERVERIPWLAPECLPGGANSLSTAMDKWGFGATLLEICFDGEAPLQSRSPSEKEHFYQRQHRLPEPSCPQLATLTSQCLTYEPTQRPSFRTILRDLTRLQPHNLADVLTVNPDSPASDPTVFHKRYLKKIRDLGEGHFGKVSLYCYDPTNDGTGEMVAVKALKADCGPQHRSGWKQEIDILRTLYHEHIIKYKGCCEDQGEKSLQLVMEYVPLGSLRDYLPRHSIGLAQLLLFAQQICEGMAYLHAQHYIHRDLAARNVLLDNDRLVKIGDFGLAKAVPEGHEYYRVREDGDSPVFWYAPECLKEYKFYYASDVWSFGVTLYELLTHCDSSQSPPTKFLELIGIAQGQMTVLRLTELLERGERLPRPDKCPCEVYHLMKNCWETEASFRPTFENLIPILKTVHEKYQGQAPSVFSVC

[8] = system: human cord-blood-derived mast cells (CBMC); assay: FcεRI-mediated degranulation (β-hexosaminidase release) of IgE-anti IgE activated CBMC; format: cell-based; conditions: Mast cell, 0.5 h, 30 minutes of stimulation
Method: (§2) (see Supporting Information; Methods S1). […] Assays of β-hexosaminidase release and TNF-α release were made by stimulating the CBMC with 1 µg/ml of goat anti-human IgE (Vector Laboratories) for 30 minutes or 4 hours, respectively. β-hexosaminidase was measured in the supernatant and in the sonicated cell pellets and its net release calculated. For TNF-α determination, the cell-free supernatants were collected by centrifugation and frozen at −80°C until determination of mediator content by the use of a specific ELISA kit according to manufacturer's instructions (Coulter, France). All assays were performed in duplicate and counts were repeated twice for each well.
(§3) Human CBMC were produced by long-term culture of CD34+ progenitors purified from normal cord-blood. […] At the beginning of the culture, rhIL-3 (1 ng/ml) (R&D Systems Europe, France) was also added to induce maximal expansion of haematopoietic progenitors. After 3 days the IL-3 was removed and 4 days later cells were transferred to a complete serum-free medium containing rmSCF at 100 ng/ml, which was renewed every 7 days thereafter. After 8 weeks in culture ≥99% of the cells were identified as being mast cells by May-Grünwald-Giemsa staining of cytocentrifuged samples.

[9] = system: human cord-blood-derived mast cells (CBMC); assay: TNF-α release by IgE-anti IgE-activated CBMC (ELISA); format: cell-based; conditions: Mast cell, 4 hours of stimulation
Method: as §2, §3

[10] = system: FMA3 cells; assay: Mastocytoma cell line proliferation (WST-1), FMA3; format: cell-based, murine; conditions: Mus musculus, 48 h; 2 days; KIT juxtamembrane mutation
Method: (B) western blotting analysis of HMC-1α155 tyrosine phosphorylation. […] (D) Western blotting analysis of BMMC tyrosine phosphorylation. Cell proliferation was assessed by WST-1 colorimetric assay. […] MW = molecular weight.

[11] = system: EOL1 cells expressing the FIP1L1-PDGFRα chimeric protein; assay: EOL1 cell proliferation; format: cell-based; conditions: Homo sapiens, EOL1, read-out: IC50, inhibition of proliferation in EOL1 cells
Method: Figures 5C), a hypereosinophilic tumour cell line expressing the FIP1L1-PDGFRα chimeric protein, which is associated with chronic eosinophilic leukaemia.
Cell growth was assessed by WST-1 colorimetric assay. […] (D) Western blotting analysis of EOL1 tyrosine phosphorylation. MW = molecular weight markers.

[12] = molecular target: T1, Insulin-like growth factor-I receptor; assay: Ba/F3 cell proliferation (WST-1), IGF-I receptor; design: expressed in transfected cells; host or cells: Ba/F3 (general description; not repeated for this kinase); conditions: Ba/F3 cells expressing the enzyme, read-out: Cell-based assay IC50, Insulin-like growth factor-I receptor

T1 sequence (P08069 31-1367): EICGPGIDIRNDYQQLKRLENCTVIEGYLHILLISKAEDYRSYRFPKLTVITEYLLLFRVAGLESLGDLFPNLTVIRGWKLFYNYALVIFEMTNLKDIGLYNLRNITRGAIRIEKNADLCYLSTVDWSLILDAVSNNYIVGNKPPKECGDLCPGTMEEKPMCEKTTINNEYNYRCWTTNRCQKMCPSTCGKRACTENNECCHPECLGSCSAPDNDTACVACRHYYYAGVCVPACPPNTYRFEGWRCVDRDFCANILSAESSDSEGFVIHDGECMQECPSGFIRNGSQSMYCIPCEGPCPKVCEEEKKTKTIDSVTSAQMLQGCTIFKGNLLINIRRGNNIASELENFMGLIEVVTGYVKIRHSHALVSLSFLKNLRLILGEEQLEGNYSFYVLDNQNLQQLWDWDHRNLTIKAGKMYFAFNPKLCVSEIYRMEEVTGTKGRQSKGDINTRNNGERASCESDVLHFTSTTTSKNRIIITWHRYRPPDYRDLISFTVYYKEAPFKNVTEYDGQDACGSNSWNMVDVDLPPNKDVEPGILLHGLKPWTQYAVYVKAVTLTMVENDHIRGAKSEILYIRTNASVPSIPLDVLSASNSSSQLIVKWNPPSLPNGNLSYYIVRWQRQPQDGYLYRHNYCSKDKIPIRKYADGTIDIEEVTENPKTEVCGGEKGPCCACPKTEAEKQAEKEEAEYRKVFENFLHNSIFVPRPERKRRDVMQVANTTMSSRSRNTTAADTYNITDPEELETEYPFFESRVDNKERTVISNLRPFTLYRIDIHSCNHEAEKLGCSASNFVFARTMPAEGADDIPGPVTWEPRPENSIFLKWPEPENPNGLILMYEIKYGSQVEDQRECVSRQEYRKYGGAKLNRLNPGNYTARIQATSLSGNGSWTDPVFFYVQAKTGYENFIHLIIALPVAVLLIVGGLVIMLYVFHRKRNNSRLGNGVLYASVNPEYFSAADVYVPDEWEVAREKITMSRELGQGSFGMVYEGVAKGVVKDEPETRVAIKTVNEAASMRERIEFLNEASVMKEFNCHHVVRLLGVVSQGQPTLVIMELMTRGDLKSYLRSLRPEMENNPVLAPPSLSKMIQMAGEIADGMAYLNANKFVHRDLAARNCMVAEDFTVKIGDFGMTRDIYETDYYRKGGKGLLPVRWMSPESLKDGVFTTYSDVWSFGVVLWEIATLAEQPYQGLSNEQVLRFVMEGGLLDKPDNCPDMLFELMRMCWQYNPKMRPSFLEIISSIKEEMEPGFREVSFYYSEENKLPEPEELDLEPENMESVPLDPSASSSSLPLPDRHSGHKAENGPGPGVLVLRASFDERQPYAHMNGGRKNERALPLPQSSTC

Work on `CS(=O)(=O)O.CS(=O)(=O)O.Cc1ccc(NC(=O)c2ccc(CN3CCN(C)CC3)cc2)cc1Nc1nc(-c2cccnc2)cs1` [masitinib, 4-(4-methylpiperazin-1-ylmethyl)-N-[4-methyl-3-(4-pyridin-3ylthiazol-2-ylamino)phenyl]benzamide-mesylate methane sulfonic acid salt] yielded an IC50 [1] of over 10 µM, an IC50 [2] of over 10 µM and an IC50 [3] of 1.87 ± 0.31 µM. It also gave an IC50 [4] of 3 ± 0.1 µM, an IC50 [5] of 5 ± 2 µM and an IC50 [6] of 5.5 ± 2.8 µM. It also gave an IC50 [7] of 9 ± 0.8 µM, an inhibition at 0.1 µM ([8]; 0.1 µM) of 7% and an inhibition at 1 µM ([8]; 1.0 µM) of 18%. It also gave an inhibition at 10 µM ([8]; 10 µM) of 35%, an inhibition at 0.1 µM ([9]; 0.1 µM) of 16% and an inhibition at 1 µM ([9]; 1.0 µM) of 40%. For the same molecule, the inhibition at 10 µM ([9]; 10 µM) was 68%, the IC50 [10] was about 0.03 µM and the IC50 [11] was 0.0002 ± 0.0001 µM. It also gave an IC50 [12] of 10 ± 0.67 µM.
